Molecular target: T1, bacteriophage T4 DNA polymerase (Enterobacteria phage T4, UniProt P04415)
T1 construct: made in house
T1 sequence (P04415 1-898): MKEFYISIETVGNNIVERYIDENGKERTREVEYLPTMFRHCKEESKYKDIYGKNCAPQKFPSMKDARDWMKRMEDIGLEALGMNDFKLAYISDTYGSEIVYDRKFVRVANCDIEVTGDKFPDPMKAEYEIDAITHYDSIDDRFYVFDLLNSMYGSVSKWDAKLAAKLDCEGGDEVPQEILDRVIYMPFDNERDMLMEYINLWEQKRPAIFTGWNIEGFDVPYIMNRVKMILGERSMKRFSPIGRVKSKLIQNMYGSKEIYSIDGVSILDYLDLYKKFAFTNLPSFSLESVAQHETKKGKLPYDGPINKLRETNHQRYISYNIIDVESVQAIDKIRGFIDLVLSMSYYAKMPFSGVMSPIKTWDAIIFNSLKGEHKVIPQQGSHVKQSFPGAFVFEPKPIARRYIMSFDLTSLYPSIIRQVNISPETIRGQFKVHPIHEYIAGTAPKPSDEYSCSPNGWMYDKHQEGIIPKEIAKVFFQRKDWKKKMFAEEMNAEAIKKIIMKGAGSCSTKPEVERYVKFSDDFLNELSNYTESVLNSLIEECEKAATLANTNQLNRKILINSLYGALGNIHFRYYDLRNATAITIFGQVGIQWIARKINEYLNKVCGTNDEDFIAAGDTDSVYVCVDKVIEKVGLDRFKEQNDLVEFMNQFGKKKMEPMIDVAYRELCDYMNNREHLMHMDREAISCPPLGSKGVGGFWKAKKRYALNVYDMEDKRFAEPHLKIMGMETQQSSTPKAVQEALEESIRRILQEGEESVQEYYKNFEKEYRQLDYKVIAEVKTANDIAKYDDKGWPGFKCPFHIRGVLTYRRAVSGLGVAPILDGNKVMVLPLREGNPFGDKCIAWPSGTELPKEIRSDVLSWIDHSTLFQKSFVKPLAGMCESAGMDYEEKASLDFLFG
Assay: Counter-screen against bacteriophage T4 DNA polymerase
Type: biochemical
Settings: DRC-2
Procedure: Codon-optimized, exonuclease-deficient Pf-apPOL was overexpressed in E. coli BL21 (DE3) and purified as described. The protein was dialysed against two, 1-liter changes of 20 mM Tris-HCl (pH 8.0), 400 mM NaCl, and 20% glycerol. Plasmodium bergei and Babesia bovis apPOLs (Pb-apPOL and Bb-apPOL, respectively) were codon-optimized, expressed, and purified as for Pf-apPOL[15]. Bacteriophage T4 DNA polymerase was purified as described. The DNA oligonucleotides used to make the high-throughput substrate were obtained from Integrated DNA Technologies. Deoxynucleotides were purchased from Strategene. All other materials came from Fisher Scientific.
Each compound was tested in a dose-response format to determine IC50 values. […] T4 DNA polymerase can be produced in large quantities, and is in the same family (B-family) as the replicative human DNA polymerases (α, δ, and ε)[20].

| Structure (SMILES) | % inhibition T4 10' (concentration 80) | % inhibition T4 40' (concentration 5) | % inhibition T4 40' (concentration 40) | % inhibition T4 90' (concentration 20) | % inhibition T4 180' (concentration 5) | % inhibition T4 180' (concentration 20) | % inhibition T4 180' (concentration 40) | % inhibition T4 10' (concentration 2.5) | % inhibition T4 10' (concentration 10) | % inhibition T4 10' (concentration 40) | % inhibition T4 40' (concentration 2.5) | % inhibition T4 40' (concentration 10) | % inhibition T4 40' (concentration 80) | % inhibition T4 90' (concentration 2.5) | % inhibition T4 90' (concentration 10) | % inhibition T4 90' (concentration 40) | % inhibition T4 90' (concentration 80) | % inhibition T4 180' (concentration 80) | % inhibition T4 10' (concentration 20) | other results |
| --- | --- | --- | --- | --- | --- | --- | --- | --- | --- | --- | --- | --- | --- | --- | --- | --- | --- | --- | --- | --- |
| O=C(NNC(=O)c1ccc(Cl)cc1)C(=O)NNC(=O)c1ccc(Cl)cc1 [Molecule 25, O=C(C(=O)NNC(=O)c1ccc(cc1)Cl)NNC(=O)c1ccc(cc1)Cl] | -22% | -13% | -17% | -22% | -17% | -23% | -17% |  |  |  |  |  |  |  |  |  |  |  |  | % inhibition T4 40' (concentration 20): -23%; % inhibition T4 90' (concentration 5): -13% |
| Cc1ccc(-n2nnc(C(=O)O)c2-c2ccccn2)c(F)c1 [Molecule 54, Cc1ccc(c(c1)F)n1nnc(c1c1ccccn1)C(=O)O] | 24% | 23% | 27% | 22% |  | 17% | 20% | 18% | 30% | 27% | 18% | 30% | 24% | 17% | 27% | 23% | 22% | 20% |  | % inhibition T4 10' (concentration 5): 23%; % inhibition T4 180' (concentration 10): 22% |
| O=C(Cc1cc(=O)[nH]c(SCc2ccccc2)n1)Nc1ccc2c(c1)OCO2 [Molecule 46, O=C(Cc1cc(=O)[nH]c(n1)SCc1ccccc1)Nc1ccc2c(c1)OCO2] | 6% |  | 9% |  |  |  | 4% | -13% |  | 9% | -13% |  | 6% |  | 4% | 9% |  |  |  |  |
| Cc1cccc2c(C(=O)NC(C)C)cc(N(C)C)nc12 [Molecule 47, CC(NC(=O)c1cc(nc2c1cccc2C)N(C)C)C] | 30% |  |  |  |  |  |  |  |  | 30% |  |  |  |  |  | 31% | 31% | 28% | 28% |  |
| O=c1[nH]c2ccc([N+](=O)[O-])cc2c(-c2ccccc2)c1Sc1nc2ccccc2o1 [KU0067471] |  |  | 48% | 36% | 11% |  |  |  | 35% |  |  | 36% | 47% | 11% |  | 47% | 48% | 47% | 35% |  |
